Structures can show the parent of a compound that is named as a salt. Where two headings read alike, the source gives them in different places.
Key:
[1] = molecular target: T1, phosphorylated VEGF-R2Δ50 (FLVK-P) (Homo sapiens, UniProt P35968, DEL940-989/E990V); assay: VEGF-R2 coupled spectrophotometric assay, phosphorylated construct (FLVK-P); assay type: biochemical; details: for inhibition at 0.05 µM: @ 50 nM, read-out: FLVK-P percent inhibition
T1 construct: VEGF-R2Δ50 contains residues 806-939 and 990-1171; made in house; host or cells: baculovirus/insect cells
In short: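 Continuous PK/LDH-coupled spectrophotometric read (NADH loss at 340 nm) with 5–40 nM enzyme in 200 mM Hepes pH 7.5. Phosphorylated construct run at 1 mM ATP, 25 mM MgCl2, 5.1 mM poly(E4Y1); unphosphorylated at 3 mM ATP, 60 mM MgCl2 plus 2 mM MnCl2, 20 mM poly(E4Y1). Ki values derived from varied inhibitor concentrations.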

[2] = molecular target: T2, unphosphorylated VEGF-R2Δ50 (FLVK) (Homo sapiens, UniProt P35968, DEL940-989/E990V); assay: VEGF-R2 coupled spectrophotometric assay, unphosphorylated construct (FLVK); assay type: biochemical; details: for inhibition at 0.05 µM: @ 50 nM, read-out: FLVK percent inhibition;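 as to all read-outs here: Baculovirus-expressed cytosolic kinase domain, ADP formation linked via pyruvate kinase and lactate dehydrogenase to NADH oxidation, read as falling absorbance at 340 nm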
T2 construct: VEGF-R2Δ50 contains residues 806-939 and 990-1171; made in house; host or cells: baculovirus/insect cells

[3] = molecular target: T3, FGF-R1 intracellular kinase domain (Homo sapiens, UniProt P11362, C488A/C584S/L457V); assay: FGF-R spectrophotometric assay; assay type: biochemical; details: for inhibition at 1 µM: read-out: FGF-P percent inhibition;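 as to all read-outs here: coupled PK/LDH enzyme assay: ADP from kinase phosphoryl transfer drives NADH oxidation, read as absorbance decrease at 340 nm, with 2 mM ATP and poly(E4Y1) substrate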
T3 construct: starting from the endogenous methionine residue 456 to glutamate 766; made in house; host or cells: baculovirus expression system
From the text: The intracellular kinase domain of human FGF-R1 was expressed using the baculovirus vector expression system starting from the endogenous methionine residue 456 to glutamate 766, according to the residue numbering system of Mohammadi et al., Mol. Cell.
The production of ADP from ATP that accompanies phosphoryl transfer was coupled to oxidation of NADH using phosphoenolpyruvate (PEP) and a system having pyruvate kinase (PK) and lactic dehydrogenase (LDH). The oxidation of NADH was monitored by following the decrease of absorbance at 340 nm (e340=6.22 cm^−1 mM^−1) using a Beckman DU 650 spectrophotometer. […] Assays were initiated with 5 to 40 nM of enzyme. Ki values were determined by measuring enzyme activity in the presence of varying concentrations of test compounds. The data were analyzed using Enzyme Kinetic and Kaleidagraph software.
The spectrophotometric assay was carried out as described above for VEGF-R2, except for the following changes in concentration: FGF-R=50 nM, ATP=2 mM, and poly(E4Y1)=15 mM.

LCK tyrosine kinase = molecular target: T4, LCK tyrosine kinase (Homo sapiens, UniProt P06239, C224D/P223M); assay: LCK spectrophotometric assay; assay type: biochemical; details: read-out: LCK-P percent inhibition;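 also: recombinant LCK kinase activity on poly(E4Y1), ADP formation coupled through PK/LDH to NADH oxidation, followed as absorbance loss at 340 nm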
T4 construct: starting from amino acid residue 223 to the end of the protein at residue 509; made in house; host or cells: insect cells
Procedure: The production of ADP from ATP that accompanies phosphoryl transfer was coupled to oxidation of NADH using phosphoenolpyruvate (PEP) and a system having pyruvate kinase (PK) and lactic dehydrogenase (LDH). The oxidation of NADH was monitored by following the decrease of absorbance at 340 nm (e340=6.22 cm^−1 mM^−1) using a Beckman DU 650 spectrophotometer. Assay conditions for phosphorylated VEGF-R2Δ50 (indicated as FLVK-P in the tables below) were the following: 1 mM PEP; 250 μM NADH; 50 units of LDH/mL; 20 units of PK/mL; 5 mM DTT; 5.1 mM poly(E4Y1); 1 mM ATP; and 25 mM MgCl2 in 200 mM Hepes, pH 7.5. Assay conditions for unphosphorylated VEGF-R2Δ50 (indicated as FLVK in the tables) were the following: 1 mM PEP; 250 μM NADH; 50 units of LDH/mL; 20 units of PK/mL; 5 mM DTT; 20 mM poly(E4Y1); 3 mM ATP; and 60 mM MgCl2 and 2 mM MnCl2 in 200 mM Hepes, pH 7.5. Assays were initiated with 5 to 40 nM of enzyme. Ki values were determined by measuring enzyme activity in the presence of varying concentrations of test compounds. The data were analyzed using Enzyme Kinetic and Kaleidagraph software.

[4] = test system: human umbilical vein endothelial cells (HUVEC); assay: HUVEC proliferation assay (VEGF-stimulated, MTT); assay type: cell-based; details: Homo sapiens
In short: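 Proliferation measured by MTT reduction (4 h exposure, absorbance at 595) 72 hours after VEGF stimulation (final 6 ng/ml). Compound added to 24 h-starved HUVEC in F12K with 1% FBS and 0.1% final DMSO, one hour before the growth factor.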

[5] = test system: lung cancer cells (line MV522); assay: Cancer cell proliferation (MV522) assay (MTT); assay type: cell-based
Procedure: The protocol for assessing cellular proliferation in cancer cells is similar to that used for assessments in HUVEC cells. Two thousand lung cancer cells (line MV522, acquired from American Tissue Cultural Collection) were seeded in growth media (RPMI1640 medium supplemented with 2 mM glutamine and 10% FBS). Cells are allowed to attach for 1 day prior to addition of test agents and/or vehicles. Cells are treated simultaneously with the same test agents used in the HUVEC assay. Cellular proliferation is quantified by MTT dye reduction assay 72 hours after exposure to test agents. The total length of the assay is 4 days vs. 5 for HUVEC cells because MV522 cells are not exposed to starvation medium.

[6] = unphosphorylated VEGF-R2 construct
[7] = HUVEC proliferation with albumin, read-out: Huvec + Albumin IC50
[8] = VEGF-stimulated HUVEC proliferation, read-out: HUVEC IC50

T4 sequence (P06239 223-509 P223M/C224D): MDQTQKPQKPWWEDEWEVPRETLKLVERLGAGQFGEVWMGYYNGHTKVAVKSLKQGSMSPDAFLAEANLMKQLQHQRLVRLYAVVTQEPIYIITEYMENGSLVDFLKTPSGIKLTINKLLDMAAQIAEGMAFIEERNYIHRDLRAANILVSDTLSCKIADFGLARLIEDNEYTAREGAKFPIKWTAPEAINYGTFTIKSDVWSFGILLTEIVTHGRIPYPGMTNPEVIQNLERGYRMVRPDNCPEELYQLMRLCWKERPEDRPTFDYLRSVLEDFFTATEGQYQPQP
T2 sequence (P35968 with tags, fused parts or gaps DEL940-989/E990V limits assumed): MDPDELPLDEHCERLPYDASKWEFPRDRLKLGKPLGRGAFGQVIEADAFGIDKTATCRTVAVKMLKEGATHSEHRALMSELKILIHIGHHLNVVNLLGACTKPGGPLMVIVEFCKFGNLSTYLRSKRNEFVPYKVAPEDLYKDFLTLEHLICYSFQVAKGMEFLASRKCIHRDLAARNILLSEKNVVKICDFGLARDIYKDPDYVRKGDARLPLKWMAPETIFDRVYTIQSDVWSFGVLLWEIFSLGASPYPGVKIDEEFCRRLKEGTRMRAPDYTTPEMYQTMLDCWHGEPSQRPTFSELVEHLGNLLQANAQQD
T1 sequence (P35968 with tags, fused parts or gaps DEL940-989/E990V limits assumed): as above
T3 sequence (P11362 456-766 L457V/C488A/C584S): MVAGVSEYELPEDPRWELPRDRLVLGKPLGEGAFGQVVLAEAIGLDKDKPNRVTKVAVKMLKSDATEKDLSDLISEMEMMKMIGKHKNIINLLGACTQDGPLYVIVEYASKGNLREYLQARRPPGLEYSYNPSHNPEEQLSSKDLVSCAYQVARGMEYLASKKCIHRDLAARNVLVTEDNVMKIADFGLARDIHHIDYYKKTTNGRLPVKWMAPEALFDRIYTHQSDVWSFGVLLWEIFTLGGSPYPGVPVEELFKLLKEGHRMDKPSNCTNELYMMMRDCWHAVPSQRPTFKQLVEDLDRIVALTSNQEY

Structure (SMILES) | Ki [2] [nM] | IC50 ([4]; HUVEC, read-out: HUVEC IC50) [nM] | IC50 ([5]; MV522) [µM] | melting point [°C] | also measured
CC(=O)Nc1ccc(CCc2cccc(C(=O)Nc3ccc(N4CCNCC4)c(C(F)(F)F)c3)c2)cn1 [AA-1, 3-[2-(6-Acetylamino-pyridin-3-yl)-ethyl]-N-(4-piperazin-1-yl-3-trifluoromethylphenyl)-benzamide dihydrochloride] |  |  |  |  | inhibition at 0.05 µM [1]: 59%; Ki [2, 6]: 2.8 nM; inhibition at 1 µM [3]: 39%; inhibition at 1 µM (LCK tyrosine kinase): 44%; IC50 [4, 7]: 25 nM
O=C(Nc1ccc(N2CCNCC2)c(C(F)(F)F)c1)c1ccc(F)c(OCc2cncc(-c3ccco3)c2)c1 [EE-1, 4-Fluoro-3-(5-furan-2-yl-pyridin-3-ylmethoxy)-N-(4-piperazin-1-yl-3-trifluoromethyl-phenyl)-benzamide dihydrochloride] |  |  |  |  | Ki [2, 6]: 3.4 nM; inhibition at 1 µM [3]: 32%; inhibition at 1 µM (LCK tyrosine kinase): 53%; IC50 [4, 7]: 180 nM
Cc1cc(NC(=O)c2cccc(CSc3cnccn3)c2)ccc1C(C)C [Example A-3, N-(4-Isopropyl-3-methylphenyl)-3-[(pyrazin-2-yl)sulfanylmethyl]benzamide] | 4.5 | 240 | > 10 | 69 to 73 | Ki [1]: 32 nM
Cc1cc(NC(=O)c2cccc(CSc3ncnc4[nH]ncc34)c2)ccc1C(C)C [Example A-5, N-(4-Isopropyl-3-methylphenyl)-3-[(1H-pyrazolo[3,4-d]pyrimidin-4-yl)sulfanylmethyl]benzamide] | 1 | 270 | > 10 | 187 to 189 | Ki [1]: 8.64 nM; inhibition at 5 µM (LCK tyrosine kinase; @ 5 μM): 37%
COc1cc(NC(=O)c2cccc(CSc3ncnc4[nH]ncc34)c2)cc(OC)c1OC [Example B-1, N-(3,4,5-Trimethoxyphenyl)-3-[(1H-pyrazolo[3,4-d]pyrimidin-4-yl)sulfanylmethyl]benzamide] | 25 |  |  |  | Ki [1]: 111 nM; Ki ([3]; read-out: FGF-P Ki): 87 µM
Cc1ccc2cc(NC(=O)c3cccc(SCc4cc(-c5ccccc5)n[nH]4)c3)ccc2n1 [Example F-2] |  | 650 | > 10 | 99 to 101 | Ki [1]: 14.7 nM
Cc1ccc2cc(NC(=O)c3cccc(CCc4cc(Nc5ccccc5)n[nH]4)c3)ccc2n1 [Example G-2, N-(2-Methylquinolin-6-yl)-3-[2-(5-phenylamino-2H-pyrazol-3-yl)ethyl]benzamide] |  | 120 | > 10 | 98 to 102 | Ki [1]: 1.78 nM
COc1ccc(Nc2cc(COc3cc(C(=O)Nc4ccc(-n5ccnc5)c(C(F)(F)F)c4)ccc3F)[nH]n2)cn1 [Example J-1, 4-Fluoro-N-[4-(imidazol-1-yl)-3-trifluoromethylphenyl]-3-[5-(6-methoxypyridin-3-yl)amino-2H-pyrazol-3-ylmethoxy]-benzamide] | 1.6 | 37 |  |  | inhibition at 1 µM [3]: 61%; inhibition at 1 µM (LCK tyrosine kinase): 38%
COc1cc(NC(=O)c2ccc(F)c(OCc3cc(Nc4ccc(OC)nc4)n[nH]3)c2)cc(C(F)(F)F)c1 [Example J-3, 4-Fluoro-3-[5-(6-methoxypyridin-3-yl)amino-2H-pyrazol-3-yl]methoxy-N-(3-methoxy-5-trifluoromethyl-phenyl)-benzamide] | 0.92 | 50 |  |  | inhibition at 1 µM [3]: 54%; inhibition at 1 µM (LCK tyrosine kinase): 44%
CC(=O)Nc1ccc(COc2cccc(C(=O)Nc3ccc(C(C)C)c(C)c3)c2)cn1 [Example N-2, 3-(6-Acetylaminopyridin-3-yl)methoxy-N-(4-Isopropyl-3-methyl-phenyl)-benzamide] |  | > 100 | > 10 | 98 to 101 | inhibition at 0.05 µM [2]: 8%
COc1cccc(/C=N/Nc2ncc(COc3cccc(C(=O)Nc4ccc(C(C)C)c(C)c4)c3)c3ccccc23)c1 [Example Q-1, N-(4-Isopropyl-3-methyl-phenyl)-3-{1-[N′-(3-methoxy-benzylidene)-hydrazino]-isoquinolin-4-ylmethoxy}-benzamide] |  | 100 to 300 |  | 125 to 131 | inhibition at 0.05 µM [1]: 17%
O=C(Nc1ccc(N2CCOCC2)c(C(F)(F)F)c1)c1ccc(F)c(OCc2cnc3ccccc3c2)c1 [Example R-16, 4-Fluoro-N-(4-morpholin-4-yl-3-trifluoromethyl-phenyl)-3-(quinolin-3-ylmethoxy)-benzamide] | 2.3 | 13 | 5.6 | 81 to 84 | 
O=C(Nc1cc(Cl)c(N2CCOCC2)c(Cl)c1)c1ccc(F)c(OCc2cccnc2)c1 [Example R-18, N-(3,5-Dichloro-4-morpholin-4-yl-phenyl)-4-fluoro-3-(pyridin-3-ylmethoxy)-benzamide] | 3.1 | 18 | > 10 | 209 to 211 | 
O=C(Nc1cc(Cl)c(N2CCNCC2)c(Cl)c1)c1ccc(F)c(OCc2cccnc2)c1 [Example R-19, N-(3,5-Dichloro-4-piperazin-1-yl-phenyl)-4-fluoro-3-(pyridin-3-ylmethoxy)-benzamide] | 13.9 | 64 | 1.7 | 81 to 85 | 
CN1CCN(c2ccc(NC(=O)c3ccc(F)c(OCc4cccnc4)c3)cc2C(F)(F)F)CC1 [Example R-20] |  | 155 | 2.6 | 61 to 66 | inhibition at 0.05 µM [2]: 19%
O=C(Nc1ccc(-n2cccn2)c(C(F)(F)F)c1)c1ccc(F)c(OCc2cccnc2)c1 [Example R-22, 4-Fluoro-N-(4-pyrazol-1-yl-3-trifluoromethyl-phenyl)-3-(pyridin-3-ylmethoxy)-benzamide] |  |  |  |  | inhibition at 0.05 µM [2]: 52%; inhibition at 1 µM [3]: 21%; inhibition at 1 µM (LCK tyrosine kinase): 13%; IC50 ([4]; HUVEC, with albumin, read-out: Huvec + Albumin IC50): > 100 nM
Cc1cc(NC(=O)c2cccc(CCc3cccnc3)c2)ccc1C(C)C [Example U-2, N-(4-Isopropyl-3-methyl-phenyl)-3-(2-pyridin-3-yl-ethyl)-benzamide] |  | 100 | > 10 | 143 to 144 | Ki [1]: 12.4 nM
COc1ccc(Nc2cc(CSc3cccc(NC(=O)c4ccc(O)c(C(C)(C)C)c4)c3)[nH]n2)cn1 [Example W-1, 3-t-Butyl-4-hydroxy-N-{3-[5-(6-methoxy-pyridin-3-ylamino)-2 H-pyrazol-3-ylmethylsulfanyl]-phenyl}-benzamide] |  |  |  |  | Ki [2, 6]: 0.12 nM; inhibition at 1 µM [3]: 67%; inhibition at 1 µM (LCK tyrosine kinase): 88%; IC50 [4, 8]: 23 nM
CC(=O)Oc1ccc(C(=O)Nc2cccc(OCc3cccnc3)c2)cc1C(C)(C)C [Example X-2, 4-Acetoxy-3-t-butyl-N-[3-(pyridin-3-ylmethoxy)phenyl]-benzamide] |  |  |  | 58 to 62 | Ki [2, 6]: 9.1 nM
CC(=O)Oc1ccc(C(=O)Nc2cccc(OCc3cncc4ccccc34)c2)cc1C(C)(C)C [Example X-3, 4-Acetoxy-3-t-butyl-N-[3-(isoquinolin-4-ylmethoxy)phenyl]-benzamide] |  |  |  | 83 to 86 | Ki [2, 6]: 2.2 nM; IC50 [4, 8]: 30 to 100 nM; IC50 ([5]; MV522 lung cancer cells): 4.6 µM
O=C(Nc1cccc(OCc2cccnc2)c1)N1CCCC1 [Example Y-1, 1-[3-(pyridin-3-ylmethoxy)phenylcarbamoyl]pyrrolidine] |  |  |  | 138 to 140 | inhibition at 0.05 µM [2]: 6%; IC50 [4, 8]: > 700 nM

— patent US6635641B2 (Agouron Pharmaceuticals, Inc., priority 2000, dated 2003)
